Measurements taken from patent publication US20230093147A1, “METHODS AND COMPOSITIONS RELATING TO IMPROVED COMBINATION THERAPIES” (PRESIDENT AND FELLOWS OF HARVARD COLLEGE, priority 2020, published 2023).
Values joined by “and” are separate entries in the source; they are usually repeats but may differ in a detail not shown here. Equal entries are not always repeated.

Experiments:
[1] = test system: 4T1 murine breast cancer cells; assay: In vitro cellular inhibition (MTT) and synergy quantification; type: cell-based
Description: 4T1 cells were seeded in 96 well plates at a density of 500 cells/well. Cells were given 24 hours to adhere to the well plate. Afterwards, a series of ten drug or drug combination dilutions prepared in fresh media were administered to the cells, with a starting concentration of 100 μM. The drugs were incubated with the cells for 72 hours before the media was removed and replaced with 0.5 mg/ml of MTT reagent in media fresh media. The MTT reagent was left incubating with the cells for 4 hours, during which living cells metabolized the reagent to form solid formazan crystals. Afterwards, the MTT reagent in media was removed, and the crystallized formazan was dissolved in DMSO. The plate is shaken at 300 rpm for 15 minutes to fully dissolve the formazan crystals, and absorbance was measured at 590 nm via Spectramax i3 plate reader. The fraction of cells inhibited at a certain drug concentration was calculated by: […]
where A is the average absorbance of the treated wells, A0 is the average absorbance of the blank wells with DMSO, and AC is the average absorbance of the control untreated wells. The IC50 values for each treatment was then determined through fitting of the Hill equation for dose-response in GraphPad™. The Hill equation is given as follows: […]
with X as the drug concentration and Y as the fractional inhibition, and m is known as the Hill coefficient and is determined according to the fit.
To evaluate drug efficacy against 4T1, drugs were evaluated as single drugs and as combination treatments with DOX. Synergy was quantified using the combination index (CI)^10. The formula for CI is as follows:
Where [AC]50 and [BC]50 represent the IC50 of drugs A and B when given in combination, and the denominator represents the IC50 of single drugs A and B. CI<1 indicates synergy, while a CI=1 indicates additive effects, and a CI>1 indicates antagonism.

[2] = test system: 4T1 cells; assay: Calreticulin exposure on 4T1 cells; type: cell-based, murine; details: 10 μM DOX, compared to untreated controls
Description: Cells for antibody staining and flow cytometry studies were plated in 6-well plates in 3 ml of media and allowed to adhere overnight. […] Treatment was administered approximately 24 h after plating. Cells were harvested using 0.5 ml of trypsin and resuspended to establish 10^6 cells in 100 μl of cell staining buffer. Cells were washed once and incubated at room temperature with 1% CD16/32 in 100 μl of cell staining buffer. After another wash, cells were incubated for 30 min on ice with fluorescently labeled antibodies (Table 12) to distinguish tumor antigens or characteristic markers of immune cell subtypes. Antibody-stained cells were then washed twice before analysis with a BD LSRII flow cytometer.

[3] = Drug release from liposomes into PBS at 37° C. over 24 hours, Example 1; type: physicochemical; details: release from liposomal formulation
Description: The release profile of drug from liposomes was studied using Amicon Ultra mini dialysis filters supplied by Millipore Sigma (Burlington, Mass.) at sink conditions^59. A tenfold dilution of each liposomal formulation in PBS was kept in the mini dialysis filter at 37° C. above a 1.1 ml PBS reservoir. Samples were placed on a plate shaker for constant agitation. […] All PBS reservoirs were analyzed for released drug content using HPLC.

[4] = free drugs and free drug combinations
[5] = free drugs and free drug combinations, 72 hours, 500 cells/well
[6] = Mus musculus, 72 h, free drugs and free drug combinations, 500 cells/well

SMILES | Hill coefficient, HC [1, 4] | IC50 [1, 5] | fold increase in calreticulin exposure on 4T1 cells [2] | IC50 [1, 6] | IC50 ([1]; Mus musculus, free drug) | IRIN released within 24 hours [3]
COc1cccc2c1C(=O)c1c(O)c3c(c(O)c1C2=O)C[C@@](O)(C(=O)CO)C[C@@H]3O[C@H]1C[C@H](N)[C@H](O)[C@H](C)O1 [DOX, Doxorubicin] | 0.75 ± 0.04 | 0.036 µM | 1.8 fold |  |  | 
Nc1ccn([C@@H]2O[C@H](CO)[C@@H](O)C2(F)F)c(=O)n1 [GEM, gemcitabine] | 1.8±0.09 and 1.83 ± 0.09 |  |  | 0.012 ± 0.0003 µM | 0.012 ± 0.0003 µM | 
CCc1c2c(nc3ccc(OC(=O)N4CCC(N5CCCCC5)CC4)cc13)-c1cc3c(c(=O)n1C2)COC(=O)[C@]3(O)CC [IRIN, irinotecan] |  | 14 ± 0.7 µM |  | 14 µM |  | less than 40%
